In patent US20130014428A1, “METHODS OF MONITORING AND CONTROLLING THE WALNUT TWIG BEETLE, PITYOPHTHORUS JUGLANDIS” (The United States of America as Represented by the …, priority 2011, published 2013):

How the values were obtained:
[1] = system: walnut twig beetle (WTB), Pityophthorus juglandis; assay: Example 1 Field Test 2: flight response to X with and without racemic conophthorin; type: in vivo; conditions: yellow sticky card traps, Davis CA
Method: Field Bioassays of Semiochemicals. To test the attractiveness of the various compounds of interest, some of the commercially available materials listed above were poured into 15 ml capped polyethylene bottles (Product #s A1-1050/002, A1-1055/002; Contech Enterprises Inc., Delta, British Columbia, Canada) and attached to yellow sticky card traps (Trécé, Adair, OK). In addition, synthesized (+) and (−) enantiomers of trans-conophthorin were tested in 400 μl polyethylene Eppendorf microcentrifuge tubes. Four field studies were conducted (Table 2) that tested the flight responses to: 3-methyl-2-buten-l-ol and related isomers (Field Test 1); 3-methyl-2-buten-l-ol with and without racemic trans-conophthorin (Field Test 2); 3-methyl-2-buten-l-ol with and without the purified enantiomers of trans-conophthorin (Field Test 3); and 3-methyl-2-buten-l-ol with and without racemic chalcogran (Field Test 4).
Statistical Analysis. Field Tests 1-4 were each analyzed for treatment effect by using Friedman's non-parametric analysis of variance. (See Zar, J. H. 2010. Biostatistical Analysis, 5th Ed. Pearson Prentice Hall, New Jersey). Males and females were subjected to separate analyses. All treatments within experiments yielding a significant treatment effect were compared by using an a posteriori Nemenyi test (Zar 2010) with experimentwise α=0.05. Sex ratios of responding WTB were determined using Cochran's method for unbiased sampling (See Cochran, W. G. 1977. Sampling Techniques, 3rd ed. John Wiley, New York), with 95% confidence intervals calculated by using the Clopper-Pearson method. (See Zar, J. H. 2010. Biostatistical Analysis, 5th Ed. Pearson Prentice Hall, New Jersey).

WTB [2] = assay: Trap height: clear plexiglass panel traps baited with X; type: in vivo, Pityophthorus juglandis; conditions: 5 mg/d, 15 ml load
Method: Effect of Trap Height on Trap Catch. The flight response of WTB to clear plexiglass panel traps coated with Stikem Special (Seabright Labs, Emeryville, Calif.) and baited with 3-methyl-2-buten-1-ol (5 mg/d, 15 ml load, polyethylene bottle) located at three heights (2, 3, and 4 m above the forest floor) was tested. The traps were placed in the crowns of J. hindsii located in a native riparian stand at Shadow Cliffs Regional Park, Alameda Co., Calif. from early to mid-spring. Both sides of a single 23 cm×14 cm sheet of clear plexiglass were covered with Stikem Special adhesive and the sheet was hung from string at each of the 3 heights from a single J. hindsii branch. The aggregation pheromone bait was hung immediately above each trap. Each group of three traps was assigned a unique position within the stand and treated as a block in a completely randomized block design (N=22). Traps within a block were all collected on the same day; blocks were collected after 2 to 7 days (after periodic flights of WTB).
Statistical Analyses. Analyses of treatment effects for the tests of trap type were performed by using Friedman's non-parametric analysis of variance or a sign test, depending on the number of treatments. (See Zar, J. H. 2010. Biostatistical Analysis. 5th ed. Pearson Prentice Hall, Englewood Cliffs, N.J.) Analysis of treatment effects for the Rain•X experiment was performed by using a Wilcoxon paired sample test. Id. Multiple comparisons for experiments with more than two treatments were performed with an a posteriori Nemenyi test with experimentwise α=0.05. Id. In all cases, male and female WTB were analyzed separately. Proportions of female WTB responding to treatments were calculated and 95% confidence intervals determined by using the Clopper-Pearson method. Id.

WTB [3] = assay: Baited vs unbaited funnel trap pairs in Tennessee and Virginia; type: in vivo, Pityophthorus juglandis; conditions: 15-80 mg/d
Method: The efficacy of the WTB trap bait as a detection tool was tested across the United States for a range of populations of the beetle that might be biologically heterogeneous and may occur at various densities in the landscape. The information learned from these trials was instrumental in preparing the national trapping guidelines for walnut twig beetle. […] For each state, trapping was performed in areas of known WTB infestation as well as nearby localities where WTB had not been previously detected. […]
To compare the effectiveness of the bait in the eastern range of WTB, pairs of baited and unbaited traps were located in Tennessee (3 pairs, 10 repeated measures for each pair) and Virginia (4 pairs, 12 repeated measures for each pair). […] Trap catch data were analyzed with a sign test. […]

[4] = about one month late spring, N=16

CC(C)=CCO [X, 3-methyl-2-buten-1-ol]
proportion of females responding [1]: 0.65
trap catches, female WTB [1, 4]: 459
trap catches, male WTB [1, 4]: 250
proportion of females responding (WTB [2]; clear plexiglass panel trap at 2 m): 0.68
proportion of females responding (WTB [2]; clear plexiglass panel trap at 3 m): 0.64
proportion of females responding (WTB [2]; clear plexiglass panel trap at 4 m): 0.72
WTB detected at baited traps (WTB [3]; Tennessee, 4-unit funnel traps, N=30): 19.1 WTB/trap/week
WTB captured in baited traps (WTB [3]; Virginia, 12-unit funnel traps, N=48): 42.3 WTB/trap/week
